We go through 19 compounds from patent US9125913B2, “Bcl-2-selective apoptosis-inducing agents for the treatment of cancer and immune diseases” (AbbVie Inc., priority 2008, dated 2015).

For the assay, the system named is GST-Bcl-2. The assay can be described thus: TR-FRET binding assay, Bcl-2. As to conditions: TR-FRET Ki values. The essentials: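 Ki values come from Wang's competitive-binding equation applied to TR-FRET signal (excitation 340/35 nm; emission 520/525 nm F-Bak peptide, 495/510 nm Tb antibody). Protein, probe and antibody incubated with compound 3 h at room temperature; dilution series began at 50 μM as 2× stock in 10% DMSO.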
In general terms: TR-FRET usually uses a lanthanide donor and a delayed reading to cut background.
With `CC(C)(C)c1ccc(CN2CCN(c3ccc(C(=O)NS(=O)(=O)c4ccc(OCC5CCOCC5)c([N+](=O)[O-])c4)c(Oc4ccc5[nH]ccc5c4)c3)CC2)c(-c2ccc(Cl)cc2)c1` [EXAMPLE 342, 4-{4-[(5-tert-butyl-4′-chloro-1,1′-biphenyl-2-yl)methyl]piperazin-1-yl}-2-(1H-indol-5-yloxy)-N-{[3-nitro-4-(tetrahydro-2H-pyran-4-ylmethoxy)phenyl]sulfonyl}benzamide], the “Binding selectivity ratio (Bcl-XL Ki/Bcl-2 Ki)” value (“Binding selectivity ratio” for short) is listed as more than 25.6.
With `O=C(NS(=O)(=O)c1ccc(NCC2CCOCC2)c(S(=O)(=O)C(F)(F)F)c1)c1ccc(N2CCN(Cc3cc(OCCCN4CCCCC4)ccc3-c3ccc(Cl)cc3)CC2)cc1Oc1ccccc1` [Example 118, 4-(4-{[4′-chloro-4-(3-piperidin-1-ylpropoxy)-1,1′-biphenyl-2-yl]methyl}piperazin-1-yl)-2-phenoxy-N-({4-[(tetrahydro-2H-pyran-4-ylmethyl)amino]-3-[(trifluoromethyl)sulfonyl]phenyl}sulfonyl)benzamide], the “Binding selectivity ratio” value is more than 858.3.
Then `CC1(C)CCC(CN2CCN(c3ccc(C(=O)NS(=O)(=O)c4ccc(OCC5CCOCC5)c([N+](=O)[O-])c4)c(Oc4cccc5[nH]ccc45)c3)CC2)=C(c2ccc(Cl)cc2)C1` [EXAMPLE 289, 4-(4-{[2-(4-chlorophenyl)-4,4-dimethylcyclohex-1-en-1-yl]methyl}piperazin-1-yl)-2-(1H-indol-4-yloxy)-N-{[3-nitro-4-(tetrahydro-2H-pyran-4-ylmethoxy)phenyl]sulfonyl}benzamide], with more than 5917.7; and `CC1(C)CCC(CN2CCN(c3ccc(C(=O)NS(=O)(=O)c4ccc(NCCOC(F)(F)F)c([N+](=O)[O-])c4)c(Oc4cccc5[nH]ccc45)c3)CC2)=C(c2ccc(Cl)cc2)C1` [EXAMPLE 292, 4-(4-{[2-(4-chlorophenyl)-4,4-dimethylcyclohex-1-en-1-yl]methyl}piperazin-1-yl)-2-(1H-indol-4-yloxy)-N-[(3-nitro-4-{[2-(trifluoromethoxy)ethyl]amino}phenyl)sulfonyl]benzamide], with more than 1104.2; and `CN(C)CCCNc1ccc(S(=O)(=O)NC(=O)c2ccc(N3CCN(Cc4ccccc4-c4ccc(Cl)cc4)CC3)cc2Oc2ccccc2)cc1C(F)(F)F` [Example 92, 4-{4-[(4′-chloro-1,1′-biphenyl-2-yl)methyl]piperazin-1-yl}-N-{[4-{[3-(dimethylamino)propyl]amino}-3-(trifluoromethyl)phenyl]sulfonyl}-2-phenoxybenzamide], with 79.7.
With `CN(C)CCCNc1ccc(S(=O)(=O)NC(=O)c2ccc(N3CCN(CC4=C(c5ccc(Cl)cc5)CCC(C)(C)C4)CC3)cc2Oc2ccc3[nH]ccc3c2)cc1[N+](=O)[O-]` [Example 51, 4-(4-{[2-(4-chlorophenyl)-5,5-dimethylcyclohex-1-en-1-yl]methyl}piperazin-1-yl)-N-[(4-{[3-(dimethylamino)propyl]amino}-3-nitrophenyl)sulfonyl]-2-(1H-indol-5-yloxy)benzamide] the figure was 62.1; with `CC1(C)CCC(CN2CCN(c3ccc(C(=O)NS(=O)(=O)c4cnc(OCC5CCC(F)(F)CC5)c(Cl)c4)c(Oc4cccc5[nH]cnc45)c3)CC2)=C(c2ccc(Cl)cc2)C1` [EXAMPLE 463, 2-(1H-benzimidazol-4-yloxy)-N-({5-chloro-6-[(4,4-difluorocyclohexyl)methoxy]pyridin-3-yl}sulfonyl)-4-(4-{[2-(4-chlorophenyl)-4,4-dimethylcyclohex-1-en-1-yl]methyl}piperazin-1-yl)benzamide], 6043.
Then `CC1(C)CCC(CN2CCN(c3ccc(C(=O)NS(=O)(=O)c4ccc(OCC5(F)CCOCC5)c([N+](=O)[O-])c4)c(Oc4ccc5[nH]ccc5c4)c3)CC2)=C(c2ccc(Cl)cc2)C1` [EXAMPLE 327, 4-(4-{[2-(4-chlorophenyl)-4,4-dimethylcyclohex-1-en-1-yl]methyl}piperazin-1-yl)-N-({4-[(4-fluorotetrahydro-2H-pyran-4-yl)methoxy]-3-nitrophenyl}sulfonyl)-2-(1H-indol-5-yloxy)benzamide], with 3035.4.
In the case of `CC1(C)CCC(CN2CCN(c3ccc(C(=O)NS(=O)(=O)c4cnc(O[C@@H]5CCN(CC(F)F)C5)c(Cl)c4)c(Oc4cccc5[nH]ncc45)c3)CC2)=C(c2ccc(Cl)cc2)C1` [EXAMPLE 422, N-[(5-chloro-6-{[(3R)-1-(2,2-difluoroethyl)pyrrolidin-3-yl]oxy}pyridin-3-yl)sulfonyl]-4-(4-{[2-(4-chlorophenyl)-4,4-dimethylcyclohex-1-en-1-yl]methyl}piperazin-1-yl)-2-(1H-indazol-4-yloxy)benzamide], the “Binding selectivity ratio” value amounted to 4073.
With `CN1CCN(Nc2ccc(S(=O)(=O)NC(=O)c3ccc(N4CCN(CC5=C(c6ccc(Cl)cc6)CC(C)(C)CC5)CC4)cc3Oc3cccc4[nH]cnc34)cc2[N+](=O)[O-])CC1` [EXAMPLE 453, 2-(1H-benzimidazol-4-yloxy)-4-(4-{[2-(4-chlorophenyl)-4,4-dimethylcyclohex-1-en-1-yl]methyl}piperazin-1-yl)-N-({4-[(4-methylpiperazin-1-yl)amino]-3-nitrophenyl}sulfonyl)benzamide] the figure was 363.04; with `C[C@@H](c1ccccc1-c1ccc(Cl)cc1)N1CCN(c2ccc(C(=O)NS(=O)(=O)c3ccc(NCC4CCOCC4)c([N+](=O)[O-])c3)c(Oc3cccc4[nH]ccc34)c2)CC1` [EXAMPLE 256, 4-{4-[(1S)-1-(4′-chloro-1,1′-biphenyl-2-yl)ethyl]piperazin-1-yl}-2-(1H-indol-4-yloxy)-N-({3-nitro-4-[(tetrahydro-2H-pyran-4-ylmethyl)amino]phenyl}sulfonyl)benzamide], more than 5519.8; with `COCCOCCSc1ccc(S(=O)(=O)NC(=O)c2ccc(N3CCN(CC4=C(c5ccc(Cl)cc5)CC(C)(C)CC4)CC3)cc2Oc2cccc3[nH]ccc23)cc1[N+](=O)[O-]` [EXAMPLE 381, 4-(4-{[2-(4-chlorophenyl)-4,4-dimethylcyclohex-1-en-1-yl]methyl}piperazin-1-yl)-2-(1H-indol-4-yloxy)-N-[(4-{[2-(2-methoxyethoxy)ethyl]thio}-3-nitrophenyl)sulfonyl]benzamide], 448.3.
With `O=C(NS(=O)(=O)c1ccc(NCCc2ccncc2)c([N+](=O)[O-])c1)c1ccc(N2CCN(Cc3ccccc3-c3ccc(Cl)cc3)CC2)cc1Oc1ccccc1` [Example 169, 4-{4-[(4′-chloro-1,1′-biphenyl-2-yl)methyl]piperazin-1-yl}-N-({3-nitro-4-[(2-pyridin-4-ylethyl)amino]phenyl}sulfonyl)-2-phenoxybenzamide], the “Binding selectivity ratio” value is 91.4.
With `CC1(C)CCC(CN2CCN(c3ccc(C(=O)NS(=O)(=O)c4ccc(NCC5COCCO5)c([N+](=O)[O-])c4)c(Oc4ccc5[nH]ccc5c4)c3)CC2)=C(c2ccc(Cl)cc2)C1` (stereo not shown) [EXAMPLE 336, 4-(4-{[2-(4-chlorophenyl)-4,4-dimethylcyclohex-1-en-1-yl]methyl}piperazin-1-yl)-N-({4-[(1,4-dioxan-2-ylmethyl)amino]-3-nitrophenyl}sulfonyl)-2-(1H-indol-5-yloxy)benzamide] the figure was 2301.3; with `COCCOCCN1CCO[C@H](CNc2ccc(S(=O)(=O)NC(=O)c3ccc(N4CCN(CC5=C(c6ccc(Cl)cc6)CC(C)(C)CC5)CC4)cc3Oc3cccc4[nH]cnc34)cc2[N+](=O)[O-])C1` [EXAMPLE 455, 2-(1H-benzimidazol-4-yloxy)-4-(4-{[2-(4-chlorophenyl)-4,4-dimethylcyclohex-1-en-1-yl]methyl}piperazin-1-yl)-N-({4-[({(2R)-4-[2-(2-methoxyethoxy)ethyl]morpholin-2-yl}methyl)amino]-3-nitrophenyl}sulfonyl)benzamide], 139.4.
With `CC1(C)CCC(CN2CCN(c3ccc(C(=O)NS(=O)(=O)c4ccc(NC5(CO)CCOCC5)c([N+](=O)[O-])c4)c(Oc4ccc5[nH]ccc5c4)c3)CC2)=C(c2ccc(Cl)cc2)C1` [EXAMPLE 240, 4-(4-{[2-(4-chlorophenyl)-4,4-dimethylcyclohex-1-en-1-yl]methyl}piperazin-1-yl)-N-[(4-{[4-(hydroxymethyl)tetrahydro-2H-pyran-4-yl]amino}-3-nitrophenyl)sulfonyl]-2-(1H-indol-5-yloxy)benzamide] the figure was more than 795.4; with `CC1(C)CCC(CN2CCN(c3ccc(C(=O)NS(=O)(=O)c4ccc(NCCCN5CCOCC5)c([N+](=O)[O-])c4)c(Oc4ccc5[nH]ncc5c4)c3)CC2)=C(c2ccc(Cl)cc2)C1` [Example 20, 4-(4-{[2-(4-chlorophenyl)-4,4-dimethylcyclohex-1-en-1-yl]methyl}piperazin-1-yl)-2-(1H-indazol-5-yloxy)-N-({4-[(3-morpholin-4-ylpropyl)amino]-3-nitrophenyl}sulfonyl)benzamide], 32.8; with `O=C(NS(=O)(=O)c1ccc(NC2CCN(C3CCOCC3)CC2)c([N+](=O)[O-])c1)c1ccc(N2CCN(CC3=C(c4ccc(Cl)cc4)CCC(O)C3)CC2)cc1Oc1ccc2[nH]ccc2c1` (stereo not shown) [EXAMPLE 225, 4-(4-{[2-(4-chlorophenyl)-5-hydroxycyclohex-1-en-1-yl]methyl}piperazin-1-yl)-2-(1H-indol-5-yloxy)-N-({3-nitro-4-[(1-tetrahydro-2H-pyran-4-ylpiperidin-4-yl)amino]phenyl}sulfonyl)benzamide], more than 348.2.
As for `CC1(C)CCC(CN2CCN(c3ccc(C(=O)NS(=O)(=O)c4ccc(NCC5CCOCC5)c([N+](=O)[O-])c4)c(Oc4cccc5[nH]ccc45)c3)CC2)=C(c2ccc(Cl)cc2)C1` [EXAMPLE 244, 4-(4-{[2-(4-chlorophenyl)-4,4-dimethylcyclohex-1-en-1-yl]methyl}piperazin-1-yl)-2-(1H-indol-4-yloxy)-N-({3-nitro-4-[(tetrahydro-2H-pyran-4-ylmethyl)amino]phenyl}sulfonyl)benzamide], the “Binding selectivity ratio” value is more than 4136.9.
